Data reported in patent US20240139221A1, “TREATMENT OF HPV-INDUCED NEOPLASIA” (priority 2022, published 2024).

Tests used:
[1] = Approximate solubility in solvents at 25° C. and 50° C., visual observation; format: physicochemical
Description: The maximum volume of each solvent added was 1 mL. Approximate solubility was determined by visual observation.
Maximum volume of each solvent added was 1 mL. Approximate solubility was determined by visual observation.

[2] = Solubility in buffers, water and simulated vaginal fluid at 37° C.; details: for pH of solution at 2 hrs: 37° C.; for solubility at 0.5 h / solubility at 2 h: 37 °C, thermodynamic from solid
Description: About 4 mg of Compound I Pattern 1 was added into 2 mL of buffer solution.
(§1) Solubility was tested in five media, pH 3.0 citrate buffer, pH 4.5 acetate buffer, pH 6.8 phosphate buffer, water, simulated vaginal fluid (pH 4.2) at 37° C. for 0.5 h and 2 h.
The salt amount used is equivalent to 10 mg anhydrous free base. […] The obtained clear solutions were analyzed by pH meter for pH, and solubility was determined by observation.
as §1

[3] = Hygroscopicity by DVS at 25° C.; format: physicochemical; details: DVS 25° C.; for D. (%) Cycle 1: Desorption cycle 1; for D. (%) Cycle 2: Desorption cycle 2; for S. (%) Cycle 1: Sorption cycle 1; for S. (%) Cycle 2: Sorption cycle 2
Description: Hygroscopicity was investigated by DVS at 25° C., using the following method: […]

[4] = Tablet stability study (purity by HPLC); format: physicochemical
Description: Tablets were prepared using the excipients and excipient ratios shown in the first column of the following tables. The tablets were then stored under the conditions indicated and periodically sampled and tested for purity by HPLC.

[5] = Bulk stability (accelerated stability, one week; HPLC and XRPD)
Description: Bulk stability: Accelerated stability experiments were conducted at 25° C./92% RH and 40° C./75% RH in an open container, 60° C. in a tight container for one week.
Samples were characterized by XRPD and HPLC and inspected for color change.
Accelerated stability experiments were conducted at 25° C./92% RH in an open container, at 40° C./75% RH in an open container, and at 60° C. in a tight container for one week.

[6] = acetate buffer, pH 4.5, aqueous buffer
[7] = citrate buffer, pH 3, aqueous buffer
[8] = phosphate buffer, pH 6.8, aqueous buffer
[9] = simulated vaginal fluid, pH 4.2, fassgf or other biorelevant
[10] = excipients Carbomer (49%) + Hydrated Dextrose (49%)
[11] = excipients Carbomer (49%) + Mannitol (49%)
[12] = excipients PC (49%) + Anhydrous Lactose (49%)
[13] = excipients PC (49%) + MCC (49%)
[14] = 25° C., 92% RH, open container, one week
[15] = 40° C., 75% RH, open container, one week
[16] = 60° C., tight container, one week

CCOC(=O)[C@H](C)NP(=O)(COCCn1cnc2c(OC)nc(N)nc21)OCc1ccccc1 (stereo partly drawn) [Compound I, ethyl(((2-(2-amino-6-methoxy-9H-purin-9-yl)ethoxy)methyl)(benzyloxy)-phosphoryl)-L-alaninate]
Solubility (mg/mL) 25° C. ([1]; Acetone): >100 mg/mL
Solubility (mg/mL) 50° C. ([1]; Acetone): >500 mg/mL
Solubility (mg/mL) 25° C. ([1]; Acetonitrile): >100 mg/mL
Solubility (mg/mL) 50° C. ([1]; Acetonitrile): >500 mg/mL
Solubility (mg/mL) 25° C. ([1]; Dichloromethane): >100 mg/mL
Solubility (mg/mL) 50° C. ([1]; Dichloromethane): >500 mg/mL
Solubility (mg/mL) 25° C. ([1]; Ethanol): >100 mg/mL
Solubility (mg/mL) 50° C. ([1]; Ethanol): >500 mg/mL
Solubility (mg/mL) 25° C. ([1]; Ethyl acetate (EA)): >100 mg/mL
Solubility (mg/mL) 50° C. ([1]; Ethyl acetate (EA)): >500 mg/mL
Solubility (mg/mL) 25° C. ([1]; Heptanes): <2 mg/mL
Solubility (mg/mL) 50° C. ([1]; Heptanes): <10 mg/mL
Solubility (mg/mL) 25° C. ([1]; Isopropanol (IPA)): >100 mg/mL
Solubility (mg/mL) 50° C. ([1]; Isopropanol (IPA)): >500 mg/mL
Solubility (mg/mL) 25° C. ([1]; Isopropyl acetate): >100 mg/mL
Solubility (mg/mL) 50° C. ([1]; Isopropyl acetate): >500 mg/mL
Solubility (mg/mL) 25° C. ([1]; Methanol): >100 mg/mL
Solubility (mg/mL) 50° C. ([1]; Methanol): >500 mg/mL
Solubility (mg/mL) 25° C. ([1]; Methyl ethyl ketone): >100 mg/mL
Solubility (mg/mL) 50° C. ([1]; Methyl ethyl ketone): >500 mg/mL
Solubility (mg/mL) 25° C. ([1]; Methyl t-butyl ether (MTBE)): <2 mg/mL
Solubility (mg/mL) 50° C. ([1]; Methyl t-butyl ether (MTBE)): <10 mg/mL
Solubility (mg/mL) 25° C. ([1]; Tetrahydrofuran): >100 mg/mL
Solubility (mg/mL) 50° C. ([1]; Tetrahydrofuran): 167 to 250 mg/mL
Solubility (mg/mL) 25° C. ([1]; Water): 20 to 25 mg/mL
Solubility (mg/mL) 50° C. ([1]; Water): 25 to 27 mg/mL
pH of solution at 2 hrs ([2]; Simulated vaginal fluid (pH adjusted with 0.2N NaOH)): (5.53)
pH of solution at 2 hrs ([2]; Water): (7.55)
solubility at 0.5 h [2, 6]: > 2 mg/mL
solubility at 2 h [2, 6]: > 2 mg/mL
solubility at 0.5 h [2, 7]: > 2 mg/mL
solubility at 2 h [2, 7]: > 2 mg/mL
pH of solution at 2 hrs ([2]; pH 3.0 100 mM citrate buffer): (2.98)
pH of solution at 2 hrs ([2]; pH 4.5 50 mM acetate buffer): (4.50)
pH of solution at 2 hrs ([2]; pH 6.8 50 mM phosphate buffer): (6.81)
solubility at 0.5 h [2, 8]: > 2 mg/mL
solubility at 2 h [2, 8]: > 2 mg/mL
solubility at 0.5 h [2, 9]: > 2 mg/mL
solubility at 2 h [2, 9]: > 2 mg/mL
solubility at 0.5 h ([2]; water): > 2 mg/mL
solubility at 2 h ([2]; water): > 2 mg/mL
D. (%) Cycle 1 ([3]; 0% RH): 0.00%
D. (%) Cycle 1 ([3]; 10% RH): 0.11%
D. (%) Cycle 1 ([3]; 20% RH): 0.23%
D. (%) Cycle 1 ([3]; 30% RH): 0.47%
D. (%) Cycle 1 ([3]; 40% RH): 0.60%
D. (%) Cycle 2 ([3]; 0% RH): 0.19%
D. (%) Cycle 2 ([3]; 10% RH): 0.37%
D. (%) Cycle 2 ([3]; 20% RH): 0.57%
D. (%) Cycle 2 ([3]; 30% RH): 0.83%
D. (%) Cycle 2 ([3]; 40% RH): 1.09%
D. (%) Cycle 2 ([3]; 50% RH): 1.48%
D. (%) Cycle 2 ([3]; 60% RH): 1.96%
D. (%) Cycle 2 ([3]; 70% RH): 2.78%
D. (%) Cycle 2 ([3]; 80% RH): 4.33%
D. (%) Cycle 2 ([3]; 90% RH): 9.10%
D. (%) Cycle 2 ([3]; 95% RH): 14.32%
S. (%) Cycle 1 ([3]; 0% RH): 0.00%
S. (%) Cycle 1 ([3]; 10% RH): 0.08%
S. (%) Cycle 1 ([3]; 20% RH): 0.17%
S. (%) Cycle 1 ([3]; 30% RH): 0.28%
S. (%) Cycle 1 ([3]; 40% RH): 0.41%
S. (%) Cycle 1 ([3]; 50% RH): 0.61%
S. (%) Cycle 1 ([3]; 60% RH): 0.85%
S. (%) Cycle 1 ([3]; 70% RH): 1.14%
S. (%) Cycle 1 ([3]; 80% RH): 1.64%
S. (%) Cycle 1 ([3]; 90% RH): 4.27%
S. (%) Cycle 1 ([3]; 95% RH): 14.32%
S. (%) Cycle 2 ([3]; 0% RH): 0.19%
S. (%) Cycle 2 ([3]; 10% RH): 0.22%
S. (%) Cycle 2 ([3]; 20% RH): 0.30%
S. (%) Cycle 2 ([3]; 30% RH): 0.44%
S. (%) Cycle 2 ([3]; 40% RH): 0.62%
purity by HPLC, 0 months [4, 10]: 99.52
purity by HPLC, 1 month 25 C./60% RH [4, 10]: 82.44
purity by HPLC, 1 month 40 C./75% RH [4, 10]: 0.17
purity by HPLC, 0 months [4, 11]: 98.87
purity by HPLC, 1 month 25 C./60% RH [4, 11]: 91.54
purity by HPLC, 1 month 40 C./75% RH [4, 11]: 6.75
purity by HPLC, 0 months [4, 12]: 99.40
purity by HPLC, 1 month 25 C./60% RH [4, 12]: 95.98
purity by HPLC, 1 month 40 C./75% RH [4, 12]: 41.3
purity by HPLC, 0 months [4, 13]: 98.64
purity by HPLC, 1 month 25 C./60% RH [4, 13]: 97.16
purity by HPLC, 1 month 40 C./75% RH [4, 13]: 46.11
XRPD after storage ([5]; 25° C., 84% RH, open container, 2 days): No change
HPLC (purity) after storage [5, 14]: 98.5%
XRPD after storage [5, 14]: No change
HPLC (purity) after storage [5, 15]: 95.2%
XRPD after storage [5, 15]: No change
HPLC (purity) after storage [5, 16]: 98.5%
XRPD after storage [5, 16]: No change
HPLC (purity), Initial ([5]; initial, before storage): 98.7%
